From US9006241B2, “Pyrimidine derivatives” (Noviga Research AB, priority 2011, dated 2015)

Columns and labels:
Assay type in all cases: cell-based
[1] = system: CCRF-CEM cancer cells - leukemia; experiment: Fluorometric Microculture Cytotoxicity Assay (FMCA), CCRF-CEM; conditions: Homo sapiens, 72 h incubation
[2] = system: MDA-MB-231 (breast cancer); experiment: FMCA, MDA-MB-231; conditions: Homo sapiens, MDA-MB-231 breast cancer cells
Description: (§1) The Fluorometric Microculture Cytotoxicity Assay, FMCA (Larsson, R., et al.; Anticancer Res, 1989, 9, 1111-1119), is a three day non-clonogenic microplate-based cell viability assay used for measurement of the cytotoxic and/or cytostatic effect of compounds in vitro (Lindhagen, E. et al.; Nat. Protoc., 2008, 3, 1364-1369). FMCA represents a valuable method to measure cytotoxicity in a number of cell types, both cell lines and primary cells from patients (Larsson, R., et al.; Int. J. Cancer, 1992, 50, 177-185; Fridborg, H., et al.; Eur. J. Cancer, 1999. 35, 424-432; Dhar, S., et al.; Br. J. Cancer, 1996, 74, 888-896).
(§2) FMCA is based on the principle that fluorescein diacetate (FDA) is converted to the fluorescent probe fluorescein by esterases in the plasma membranes of living cells. For experiments, 96 or 384-well microplates are prepared with compounds and stored at −70° C. until use. Cells are then seeded into the drug-prepared plates and placed in an incubator for 72 h. On the last day of incubation, the plates are washed and a buffer containing FDA is added and incubated with the cells for 45 minutes. Finally the fluorescence per well is measured in a fluorometer and a Survival Index % (SI) for each compound-treated well is calculated with the equation: Compound-treated cells minus blank divided by control cells minus blank. A high SI-value indicates a large percentage of living cells and vice versa.
(§3) For dose-response experiments, 384-well plates were prepared as follows:
(§4) Compounds of the invention as well comparative kinase inhibitors sorafenib sunitinib, dasatinib, pazopanib and a reference compound disclosed in WO 2009/071535 (compound #107) were diluted with PBS to a concentration ten-times higher than the desired starting concentration. Then, a Biomek 2000 liquid handling system was employed to serially dilute the compounds in a deep-well 384-well plate. From this plate, assay plates containing 5 μl compound per well were prepared with the Biomek 2000. Certain compounds precipitated when diluted with PBS, and these compounds were therefore prepared in a 96-well plate manually as described above using culture medium RPMI 1640 instead of PBS.
(§5) The compounds were also tested at five concentrations, with five times serial dilution on the following cell types: CCRF-CEM, hTERT-RPE1 (normal retinal epithelial cells), hRPTEpiC (normal renal cells), and peripheral blood mononuclear cells (PBMC). Each experiment was performed three times, except for PBMC and hRPTEpiC, which were performed twice. SI-values were calculated, graphs were plotted using GraphPadPrism 5.0 (GraphPad Software Inc. La Jolla, Calif.) and IC50-values for each cell type and compound were determined from the curves.
(§6) The compounds of the invention were also tested on further cancer cell lines related to breast cancer (MDA-MB-231; see e.g. Cailleau, R., et al.; J. Natl. Cancer Inst., 1974, 53, 661-674), teniposide-resistant leukemia (CEM/VM1 see e.g. Danks, M., et al.; Cancer Res., 1987, 47, 1297-1301), leukemia (HL-60; see e.g. Collins, S., et al.; Nature, 1977, 270, 347-349), doxorubicin-resistant lung cancer (H69AR; see e.g. Mirski, S., et al.; Cancer Res., 1987, 47, 2594-2598), myeloma (RPMI 8226; see e.g. Matsuoka, Y., et al.; Proc. Soc. Exp. Biol. Med., 1967, 125, 1246-1250), doxorubicin-resistant myeloma (8226/Dox40; see e.g. Dalton, W., et al.; Blood, 1989, 15, 747-752), lymphoma (U-937, see e.g. Sundström, C., et al.; Int. […]

[3] = system: CEM/VM1 (teniposide-resistant leukemia); experiment: FMCA, CEM/VM1; conditions: Homo sapiens, CEM/VM1 teniposide-resistant leukemia cells
Description: as §1, §2, §3, §4, §5
as §6, with “Int. J. Cancer, 1976, 17, 565-577), vincristin-resistant lymphoma (U-937-vcr; see e.g. Botling, J., et al.; Int. J. Cancer, 1994, 58, 269-274), ovarian cancer (A2780; see e.g. Hamilton, T., et al.; Semin. Oncol., 1984, 11, 285-298), doxorubicin-resistant ovarian cancer (A2780/Adr), cisplatin-resistant ovarian cancer (A2780/Cis; see e.g. Behrens, B., et al. Cancer Res. 1987, 47, 414-418), pancreatic cancer (PANC-1, BxPC-3, and MIA PaCa-2; see e.g. Lieber, M., et al.; Int. J. Cancer, 1975, 15, 741-747; Loor, R., et al.; Clin. Lab.” for “Int.”

HL-60 (leukemia) = experiment: FMCA, HL-60; conditions: Homo sapiens, HL-60 leukemia cells
Description: as §1, §2, §3, §4, §5, §6

[4] = system: H69AR (doxorubicin-resistant lung cancer); experiment: FMCA, H69AR; conditions: Homo sapiens, H69AR doxorubicin-resistant lung cancer cells
Description: as §1, §2, §3, §4, §5
as §6, with “Int. J. Cancer, 1976, 17, 565-577), vincristin-resistant lymphoma (U-937-vcr; see e.g. Botling, J., et al.; Int. J. Cancer, 1994, 58, 269-274), ovarian cancer (A2780; see e.g. Hamilton, T., et al.; Semin. Oncol., 1984, 11, 285-298), doxorubicin-resistant ovarian cancer (A2780/Adr), cisplatin-resistant ovarian cancer (A2780/Cis; see e.g. Behrens, B., et al. Cancer Res. 1987, 47, 414-418), pancreatic cancer (PANC-1, BxPC-3, and MIA PaCa-2; see e.g. Lieber, M., et al.; Int. J. Cancer, 1975, 15, 741-747; Loor, R., et al.; Clin. Lab.” for “Int.”

RPMI 8226 (myeloma) = experiment: FMCA, RPMI 8226; conditions: Homo sapiens, RPMI 8226 myeloma cells
Description: as §1, §2, §3, §4, §5
as §6, with “Int. J. Cancer, 1976, 17, 565-577), vincristin-resistant lymphoma (U-937-vcr; see e.g. Botling, J., et al.; Int. J. Cancer, 1994, 58, 269-274), ovarian cancer (A2780; see e.g. Hamilton, T., et al.; Semin. Oncol., 1984, 11, 285-298), doxorubicin-resistant ovarian cancer (A2780/Adr), cisplatin-resistant ovarian cancer (A2780/Cis; see e.g. Behrens, B., et al. Cancer Res. 1987, 47, 414-418), pancreatic cancer (PANC-1, BxPC-3, and MIA PaCa-2; see e.g. Lieber, M., et al.; Int. J. Cancer, 1975, 15, 741-747; Loor, R., et al.; Clin. Lab.” for “Int.”

[5] = system: 8226/Dox40 (doxorubicin-resistant myeloma); experiment: FMCA, 8226/Dox40; conditions: 8226/Dox40 doxorubicin-resistant myeloma cells
Description: as §1, §2, §3, §4, §5
as §6, with “Int. J. Cancer, 1976, 17, 565-577), vincristin-resistant lymphoma (U-937-vcr; see e.g. Botling, J., et al.; Int. J. Cancer, 1994, 58, 269-274), ovarian cancer (A2780; see e.g. Hamilton, T., et al.; Semin. Oncol., 1984, 11, 285-298), doxorubicin-resistant ovarian cancer (A2780/Adr), cisplatin-resistant ovarian cancer (A2780/Cis; see e.g. Behrens, B., et al. Cancer Res. 1987, 47, 414-418), pancreatic cancer (PANC-1, BxPC-3, and MIA PaCa-2; see e.g. Lieber, M., et al.; Int. J. Cancer, 1975, 15, 741-747; Loor, R., et al.; Clin. Lab.” for “Int.”

U-937 (lymphoma) = experiment: FMCA, U-937; conditions: Homo sapiens, U-937 lymphoma cells
Description: as §1, §2, §3, §4, §5
as §6, with “Int. J. Cancer, 1976, 17, 565-577), vincristin-resistant lymphoma (U-937-vcr; see e.g. Botling, J., et al.; Int. J. Cancer, 1994, 58, 269-274), ovarian cancer (A2780; see e.g. Hamilton, T., et al.; Semin. Oncol., 1984, 11, 285-298), doxorubicin-resistant ovarian cancer (A2780/Adr), cisplatin-resistant ovarian cancer (A2780/Cis; see e.g. Behrens, B., et al. Cancer Res. 1987, 47, 414-418), pancreatic cancer (PANC-1, BxPC-3, and MIA PaCa-2; see e.g. Lieber, M., et al.; Int. J. Cancer, 1975, 15, 741-747; Loor, R., et al.; Clin. Lab.” for “Int.”

[6] = system: U-937-vcr (vincristin-resistant lymphoma); experiment: FMCA, U-937-vcr; conditions: U-937-vcr vincristin-resistant lymphoma cells
Description: as §1, §2, §3, §4, §5
as §6, with “Int. J. Cancer, 1976, 17, 565-577), vincristin-resistant lymphoma (U-937-vcr; see e.g. Botling, J., et al.; Int. J. Cancer, 1994, 58, 269-274), ovarian cancer (A2780; see e.g. Hamilton, T., et al.; Semin. Oncol., 1984, 11, 285-298), doxorubicin-resistant ovarian cancer (A2780/Adr), cisplatin-resistant ovarian cancer (A2780/Cis; see e.g. Behrens, B., et al. Cancer Res. 1987, 47, 414-418), pancreatic cancer (PANC-1, BxPC-3, and MIA PaCa-2; see e.g. Lieber, M., et al.; Int. J. Cancer, 1975, 15, 741-747; Loor, R., et al.; Clin. Lab.” for “Int.”

A2780 (ovarian cancer) = experiment: FMCA, A2780; conditions: Homo sapiens, A2780 ovarian cancer cells
Description: as §1, §2, §3, §4, §5
as §6, with “Int. J. Cancer, 1976, 17, 565-577), vincristin-resistant lymphoma (U-937-vcr; see e.g. Botling, J., et al.; Int. J. Cancer, 1994, 58, 269-274), ovarian cancer (A2780; see e.g. Hamilton, T., et al.; Semin. Oncol., 1984, 11, 285-298), doxorubicin-resistant ovarian cancer (A2780/Adr), cisplatin-resistant ovarian cancer (A2780/Cis; see e.g. Behrens, B., et al. Cancer Res. 1987, 47, 414-418), pancreatic cancer (PANC-1, BxPC-3, and MIA PaCa-2; see e.g. Lieber, M., et al.; Int. J. Cancer, 1975, 15, 741-747; Loor, R., et al.; Clin. Lab.” for “Int.”

[7] = system: A2780/Adr (doxorubicin-resistant ovarian cancer); experiment: FMCA, A2780/Adr; conditions: A2780/Adr doxorubicin-resistant ovarian cancer cells
Description: as §1, §2, §3, §4, §5
as §6, with “Int. J. Cancer, 1976, 17, 565-577), vincristin-resistant lymphoma (U-937-vcr; see e.g. Botling, J., et al.; Int. J. Cancer, 1994, 58, 269-274), ovarian cancer (A2780; see e.g. Hamilton, T., et al.; Semin. Oncol., 1984, 11, 285-298), doxorubicin-resistant ovarian cancer (A2780/Adr), cisplatin-resistant ovarian cancer (A2780/Cis; see e.g. Behrens, B., et al. Cancer Res. 1987, 47, 414-418), pancreatic cancer (PANC-1, BxPC-3, and MIA PaCa-2; see e.g. Lieber, M., et al.; Int. J. Cancer, 1975, 15, 741-747; Loor, R., et al.; Clin. Lab.” for “Int.”

[8] = system: A2780/Cis (cisplatin-resistant ovarian cancer); experiment: FMCA, A2780/Cis; conditions: A2780cis, A2780/Cis cisplatin-resistant ovarian cancer cells
Description: as §1, §2, §3, §4, §5
as §6, with “Int. J. Cancer, 1976, 17, 565-577), vincristin-resistant lymphoma (U-937-vcr; see e.g. Botling, J., et al.; Int. J. Cancer, 1994, 58, 269-274), ovarian cancer (A2780; see e.g. Hamilton, T., et al.; Semin. Oncol., 1984, 11, 285-298), doxorubicin-resistant ovarian cancer (A2780/Adr), cisplatin-resistant ovarian cancer (A2780/Cis; see e.g. Behrens, B., et al. Cancer Res. 1987, 47, 414-418), pancreatic cancer (PANC-1, BxPC-3, and MIA PaCa-2; see e.g. Lieber, M., et al.; Int. J. Cancer, 1975, 15, 741-747; Loor, R., et al.; Clin. Lab.” for “Int.”

[9] = system: BxPC-3 (pancreatic cancer); experiment: FMCA, BxPC-3; conditions: Homo sapiens, BxPC-3 pancreatic cancer cells
Description: as §1, §2, §3, §4, §5, §6

[10] = system: PANC-1 (pancreatic cancer); experiment: FMCA, PANC-1; conditions: Homo sapiens, PANC-1 pancreatic cancer cells
Description: as §1, §2, §3, §4, §5, §6

[11] = system: MIA PaCa-2 (pancreatic cancer); experiment: FMCA, MIA PaCa-2; conditions: Homo sapiens, MIA PaCa-2 pancreatic cancer cells
Description: as §1, §2, §3, §4, §5, §6

PC-3 (prostate cancer) = experiment: FMCA, PC-3; conditions: PC-3 prostate cancer cells
Description: as §1, §2, §3, §4, §5, §6

- EC50 [2]: 150 nM
- EC50 [3]: 71 nM
- EC50 (HL-60 (leukemia)): 31 nM
- EC50 [4]: 120 nM
- EC50 (RPMI 8226 (myeloma)): 1400 nM
- EC50 [5]: 4300 nM
- EC50 (U-937 (lymphoma)): 37 nM
- EC50 [6]: 69 nM
- EC50 (A2780 (ovarian cancer)): 55 nM
- EC50 [7]: 980 nM
- EC50 [8]: 96 nM
- EC50 [9]: 120 nM
- EC50 [10]: 1400 nM
- EC50 [11]: 58 nM
- EC50 (PC-3 (prostate cancer)): 310 nM
SMILES: COc1ccc2[nH]cc(CCNc3nccc(Nc4ccc5[nH]c(CO)cc5c4)n3)c2c1 [Example 15, (5-{2-[2-(5-methoxy-1H-indol-3-yl)ethylamino]pyrimidin-4-ylamino}-1H-indol-2-yl)methanol]
- EC50 [1]: 27 nM
